# Assay results from PubChem BioAssay (NCI).
#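 96-well plates; 48 h exposure; 5 concentrations. Endpoints by linear interpolation between flanking doses. Not reached: highest tested concentration assigned. GI50 = concentration required for 50% inhibition of growth. TGI marks complete inhibition of growth.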
# Columns and labels:
# Experiment in all cases: NCI-60 cell line screen, 48 h
# OVCAR-5 ovarian = test system: OVCAR-5 ovarian
# EKVX NSCLC = test system: EKVX NSCLC
# CAKI-1 renal = test system: CAKI-1 renal
# SK-MEL-28 melanoma = test system: SK-MEL-28 melanoma
# RXF 393 renal = test system: RXF 393 renal
# CCRF-CEM leukemia = test system: CCRF-CEM leukemia
# PC-3 prostate = test system: PC-3 prostate
# 786-0 renal = test system: 786-0 renal
# SK-MEL-5 melanoma = test system: SK-MEL-5 melanoma
# NCI/ADR-RES ovarian = test system: NCI/ADR-RES ovarian
# KM12 colon = test system: KM12 colon
# HOP-92 NSCLC = test system: HOP-92 NSCLC
# UACC-62 melanoma = test system: UACC-62 melanoma
# SK-OV-3 ovarian = test system: SK-OV-3 ovarian
# HCT-15 colon = test system: HCT-15 colon
# SNB-19 CNS = test system: SNB-19 CNS
# HCT-116 colon = test system: HCT-116 colon
# ACHN renal = test system: ACHN renal
# SNB-75 CNS = test system: SNB-75 CNS
# SF-539 CNS = test system: SF-539 CNS
# DU-145 prostate = test system: DU-145 prostate
# A498 renal = test system: A498 renal
# SN12C renal = test system: SN12C renal
# MDA-MB-231 breast = test system: MDA-MB-231 breast
# MDA-MB-435 = test system: MDA-MB-435
# UO-31 renal = test system: UO-31 renal
# MCF7 breast = test system: MCF7 breast
# K-562 leukemia = test system: K-562 leukemia
# HCC-2998 colon = test system: HCC-2998 colon
# RPMI-8226 leukemia = test system: RPMI-8226 leukemia
# TK-10 renal = test system: TK-10 renal
# SF-295 CNS = test system: SF-295 CNS
# BT-549 breast = test system: BT-549 breast
# UACC-257 melanoma = test system: UACC-257 melanoma
# HL-60(TB) leukemia = test system: HL-60(TB) leukemia
# OVCAR-4 ovarian = test system: OVCAR-4 ovarian
compound,measurement,setting,value
COC[C@]12CCC(C)(C)C[C@H]1C1=CC[C@@H]3[C@@]4(C)CCCNC(C)(C)[C@@H]4CC[C@@]3(C)[C@]1(C)CC2,GI50,OVCAR-5 ovarian,1670 nM
same,TGI,OVCAR-5 ovarian,3130 nM
same,GI50,EKVX NSCLC,1640 nM
same,TGI,EKVX NSCLC,3120 nM
same,GI50,CAKI-1 renal,1820 nM
same,TGI,CAKI-1 renal,3560 nM
same,GI50,SK-MEL-28 melanoma,1670 nM
same,TGI,SK-MEL-28 melanoma,3070 nM
same,GI50,RXF 393 renal,1370 nM
same,TGI,RXF 393 renal,2880 nM
same,GI50,CCRF-CEM leukemia,1260 nM
same,TGI,CCRF-CEM leukemia,3190 nM
same,GI50,PC-3 prostate,1310 nM
same,TGI,PC-3 prostate,2640 nM
same,GI50,786-0 renal,1610 nM
same,TGI,786-0 renal,3300 nM
same,GI50,SK-MEL-5 melanoma,1580 nM
same,TGI,SK-MEL-5 melanoma,3050 nM
same,GI50,NCI/ADR-RES ovarian,1730 nM
same,TGI,NCI/ADR-RES ovarian,3480 nM
same,GI50,KM12 colon,1790 nM
same,TGI,KM12 colon,3480 nM
same,GI50,HOP-92 NSCLC,1170 nM
same,TGI,HOP-92 NSCLC,2580 nM
same,GI50,UACC-62 melanoma,1620 nM
same,TGI,UACC-62 melanoma,3120 nM
same,GI50,SK-OV-3 ovarian,1800 nM
same,TGI,SK-OV-3 ovarian,3390 nM
same,GI50,HCT-15 colon,1410 nM
same,TGI,HCT-15 colon,2870 nM
same,GI50,SNB-19 CNS,1760 nM
same,TGI,SNB-19 CNS,3300 nM
same,GI50,HCT-116 colon,1090 nM
same,TGI,HCT-116 colon,2480 nM
same,GI50,ACHN renal,1730 nM
same,TGI,ACHN renal,3120 nM
same,GI50,SNB-75 CNS,1530 nM
same,TGI,SNB-75 CNS,3410 nM
same,GI50,SF-539 CNS,1560 nM
same,TGI,SF-539 CNS,3050 nM
same,GI50,DU-145 prostate,1810 nM
same,TGI,DU-145 prostate,3370 nM
same,GI50,A498 renal,1710 nM
same,TGI,A498 renal,3230 nM
same,GI50,SN12C renal,1510 nM
same,TGI,SN12C renal,3070 nM
same,GI50,MDA-MB-231 breast,1890 nM
same,TGI,MDA-MB-231 breast,3620 nM
same,GI50,MDA-MB-435,1660 nM
same,TGI,MDA-MB-435,3130 nM
same,GI50,UO-31 renal,1410 nM
same,TGI,UO-31 renal,2790 nM
same,GI50,MCF7 breast,1250 nM
same,TGI,MCF7 breast,2820 nM
same,GI50,K-562 leukemia,350 nM
same,TGI,K-562 leukemia,4650 nM
same,GI50,HCC-2998 colon,1310 nM
same,TGI,HCC-2998 colon,2760 nM
same,GI50,RPMI-8226 leukemia,1310 nM
same,TGI,RPMI-8226 leukemia,3650 nM
same,GI50,TK-10 renal,1810 nM
same,TGI,TK-10 renal,3530 nM
same,GI50,SF-295 CNS,1730 nM
same,TGI,SF-295 CNS,3210 nM
same,GI50,BT-549 breast,1680 nM
same,TGI,BT-549 breast,3110 nM
same,GI50,UACC-257 melanoma,1910 nM
same,TGI,UACC-257 melanoma,3820 nM
same,GI50,HL-60(TB) leukemia,1430 nM
same,TGI,HL-60(TB) leukemia,3870 nM
same,GI50,OVCAR-4 ovarian,1700 nM
same,TGI,OVCAR-4 ovarian,3340 nM
